Assay results from US20200037600A1, “MESOIONIC IMIDAZOPYRIDINES AS INSECTICIDES” (Bayer Aktiengesellschaft, priority 2017, published 2020).
Read-outs that look alike come from different tables or passages of the source.

Experiments:
[1] = system: Myzus persicae; experiment: Myzus persicae oral test; format: in vivo; settings: after 5 days; for pest or weed control at 4 ppm / pest or weed control at 20 ppm: Myzus persicae, po, 120 h, read-out: efficacy
Description: Solvent: 100 parts by weight of acetone
To produce a suitable active compound formulation, 1 part by weight of active compound is dissolved with the stated parts by weight of solvent and made up to the desired concentration with water.
50 μl of the active compound formulation are transferred into microtitre plates and made up to a final volume of 200 μl with 150 μl of IPL41 insect medium (33%+15% sugar). Subsequently, the plates are sealed with parafilm, which a mixed population of green peach aphids (Myzus persicae) within a second microtitre plate is able to puncture and imbibe the solution.
(§1) After 5 days, the efficacy in % is determined. 100% means that all the aphids have been killed; 0% means that no aphids have been killed.

[2] = system: Myzus persicae; experiment: Myzus persicae spray test; format: in vivo; settings: application rate 500 g/ha, Chinese cabbage leaf discs, after 5 days; for pest or weed control at 500 g/ha: Myzus persicae, foliar, 120 h, read-out: efficacy
Description: Myzus persicae—Spray Test
(§2) Solvent: 78 parts by weight of acetone • • 1.5 parts by weight of dimethylformamide
(§3) Emulsifier: alkylaryl polyglycol ether
(§4) To produce a suitable active compound formulation, 1 part by weight of active compound is dissolved with the specified parts by weight of solvent and made up to the desired concentration with water containing an emulsifier concentration of 1000 ppm. To produce further test concentrations, the formulation is diluted with emulsifier-containing water.
Discs of Chinese cabbage leaves (Brassica pekinensis) infested by all stages of the green peach aphid (Myzus persicae) are sprayed with an active compound formulation of the desired concentration.
as §1

[3] = log P by HPLC (EEC directive 79/831 Annex V.A8); format: physicochemical
Description: The log P values reported in the tables and preparation examples above were determined in accordance with EEC directive 79/831 Annex V.A8 by HPLC (High Performance Liquid Chromatography) using a reversed-phase column (C18). Temperature 43° C. The calibration is effected with unbranched alkan-2-ones (having 3 to 16 carbon atoms), for which the log P values are known.

[4] = system: Diabrotica balteata; experiment: Diabrotica balteata spray test; format: in vivo; settings: application rate 160 μg/well, beetle larvae on germinated wheat grains, after 7 days; for pest or weed control at 160 µg/disc, 160 µg/well: Diabrotica balteata, 168 h, read-out: efficacy
Description: Diabrotica balteata—Spray Test
as §2, §3, §4
Pre-swollen wheat grains (Triticum aestivum) are incubated in a multiwell plate filled with agar and a little water for one day (5 seed grains per well). The germinated wheat grains are sprayed with an active compound preparation of the desired concentration. Subsequently, each cavity is infected with 10-20 beetle larvae of Diabrotica balteata.
After 7 days, the efficacy in % is determined. 100% means that all maize plants have grown as in the untreated, uninfected control; 0% means that no maize plant has grown.

[5] = HPLC, reversed-phase column (C18), 43° C, acidic (HCOOH), read-out: log P (HCOOH)

`C#CCOC(=O)C(=O)c1c([O-])[n+]2ccccc2n1Cc1cnc(Cl)s1` [Example I-055] showed an efficacy ([1]; application rate 4 ppm) of 100% and an efficacy [2] of 90%.

`O=C(COCc1ccnc(Cl)c1)c1c([O-])[n+]2ccccc2n1Cc1ccc(Cl)nc1` [Example I-084, 2-[2-[(2-chloro-4-pyridyl)methoxy]acetyl]-1-[(6-chloro-3-pyridyl)methyl]imidazo[1,2-a]pyridin-4-ium-3-olate] gave a chromatographic logP [3] of 1.73.

In the case of `Cc1cccnc1N(CC(=O)OC(C)(C)C)Cc1cnc(Cl)s1` [tert-Butyl 2-[(2-chlorothiazol-5-yl)methyl-(3-methyl-2-pyridyl)amino]acetate], the chromatographic logP [3] is reported as 4.13.

In the case of `CC(C)(C)OC(=O)CN(Cc1cnc(Cl)s1)c1ncccc1I` [IV-2-002], the chromatographic logP [3] is reported as 4.62.

`O=C(c1c([O-])[n+]2ccccc2n1Cc1cncnc1)C(F)(F)F` [Example I-012] gave an efficacy ([1]; application rate 4 ppm) of 100% and an efficacy ([1]; application rate 20 ppm) of 100%.

In the case of `O=C(CBr)c1c([O-])[n+]2ccccc2n1Cc1cnc(Cl)s1` [Example I-020], the efficacy ([1]; application rate 4 ppm) is reported as 100% and the efficacy [2] is reported as 90%.

`O=C(c1c([O-])[n+]2ccccc2n1Cc1cnc(Cl)s1)C1CC1` [Example I-031] gave an efficacy [4] of 100% and an efficacy ([1]; application rate 4 ppm) of 90%.

Molecule `CCOC(=O)C(=O)c1c([O-])[n+]2ccccc2n1Cc1cnc(Cl)s1` [Example I-029, 1-[(2-chlorothiazol-5-yl)methyl]-2-(2-ethoxy-2-oxoacetyl)imidazo[1,2-a]pyridin-4-ium-3-olate] has a pest or weed control at 4 ppm ([1]; application rate 4 ppm) of 100% and a chromatographic logP [3] of 1.55.

With `Oc1cn(Cc2cnc(Cl)s2)c2c(C3CC3)ccc[n+]12` [VII-1-003, 1-[(2-chlorothiazol-5-yl)methyl]-8-cyclopropylimidazo[1,2-a]pyridin-4-ium-3-ol 2,2,2-trifluoroacetate] the chromatographic logP [3, 5] was 1.27.

For `COC(=O)C(=O)c1c([O-])[n+]2ccccc2n1Cc1cnc(Cl)s1` [Example I-032], the efficacy ([1]; application rate 4 ppm) was 100% and the efficacy [2] was 100%.

With `COCC(=O)c1c([O-])[n+]2ccccc2n1Cc1cnc(Cl)s1` [Example I-010, 1-[(2-Chlorothiazol-5-yl)methyl]-2-(2-methoxyacetyl)imidazo[1,2-a]pyridin-4-ium-3-olate] the pest or weed control at 160 µg/disc, 160 µg/well [4] was 100%, the pest or weed control at 4 ppm ([1]; application rate 4 ppm) was 100% and the pest or weed control at 20 ppm ([1]; application rate 20 ppm) was 100%. The pest or weed control at 500 g/ha [2] was 100% and the chromatographic logP [3] was 1.13.

`O=C(OCCc1ccccc1)C(=O)c1c([O-])[n+]2ccccc2n1Cc1cnc(Cl)s1` [Example I-052] gave an efficacy ([1]; application rate 4 ppm) of 100%.

`O=C(CCl)c1c([O-])[n+]2ccccc2n1Cc1ccc(Cl)nc1` [Example I-001] gave an efficacy ([1]; application rate 20 ppm) of 100%.

`O=C(OCCC(F)(F)F)C(=O)c1c([O-])[n+]2ccccc2n1Cc1cnc(Cl)s1` [Example I-054] showed an efficacy ([1]; application rate 4 ppm) of 100% and an efficacy [2] of 70%.

In the case of `CC(C)(C)OC(=O)CN(Cc1cnc(Cl)s1)c1ncccc1C1CC1` [IV-2-003], the chromatographic logP [3, 5] is reported as 4.73.

With `O=C(Cn1cc(Cl)cn1)c1c([O-])[n+]2ccccc2n1Cc1ccc(Cl)nc1` [Example I-006] the efficacy ([1]; application rate 20 ppm) was 100%.

`CC(C)=CCOC(=O)C(=O)c1c([O-])[n+]2ccccc2n1Cc1cnc(Cl)s1` [Example I-057] showed an efficacy ([1]; application rate 4 ppm) of 100% and an efficacy [2] of 90%.

In the case of `CC(C)(C)OC(=O)C(=O)c1c([O-])[n+]2ccccc2n1Cc1cnc(Cl)s1` [Example I-066], the efficacy ([1]; application rate 4 ppm) is reported as 90% and the efficacy [2] is reported as 90%.

For `CCC(=O)c1c([O-])[n+]2ccccc2n1Cc1cnc(Cl)s1` [Example I-014], the efficacy [4] was 80% and the efficacy ([1]; application rate 4 ppm) was 100%.

Work on `O=C(NCC1CC1)c1c([O-])[n+]2ccccc2n1Cc1cnc(Cl)s1` [Example I-016] yielded an efficacy [4] of 100% and an efficacy ([1]; application rate 4 ppm) of 90%.

Molecule `CC(C)(C)OC(=O)CN(Cc1cnc(Cl)s1)c1ccccn1` [tert-Butyl 2-[(2-chlorothiazol-5-yl)methyl-(2-pyridyl)amino]acetate] has a chromatographic logP [3] of 3.59.

`O=C(O)CN(Cc1cnc(Cl)s1)c1ccccn1` [Example V-1-001, 2-[(2-Chlorothiazol-5-yl)methyl-(2-pyridyl)amino]acetic Acid] gave a chromatographic logP [3] of 1.21.

For `O=C(Cn1cc(Cl)cn1)c1c([O-])[n+]2ccccc2n1Cc1cnc(Cl)s1` [Example I-004, 2-[2-(4-Chloropyrazol-1-yl)acetyl]-1-[(2-chlorothiazol-5-yl)methyl]imidazo[1,2-a]pyridin-4-ium-3-olate], the pest or weed control at 20 ppm ([1]; application rate 20 ppm) was 90% and the chromatographic logP [3, 5] was 1.83.

`O=C(c1c([O-])[n+]2cccc(-c3ccccc3)c2n1Cc1cnc(Cl)s1)C(F)(F)F` [Example I-109, 1-[(2-chlorothiazol-5-yl)methyl]-8-phenyl-2-(2,2,2-trifluoroacetyl)imidazo[1,2-a]pyridin-4-ium-3-olate] gave a chromatographic logP [3, 5] of 2.99.

Molecule `Cc1ccc[n+]2c(O)cn(Cc3cnc(Cl)s3)c12` [VII-1-001, 1-[(2-Chlorothiazol-5-yl)methyl]-8-methylimidazo[1,2-a]pyridin-4-ium-3-ol; 2,2,2-trifluoroacetate] has a chromatographic logP [3, 5] of 0.75.

With `CC(=O)c1c([O-])[n+]2ccccc2n1Cc1ccc(Cl)nc1` [Example I-003] the efficacy ([1]; application rate 4 ppm) was 90% and the efficacy ([1]; application rate 20 ppm) was 100%.

With `O=C(OCc1ccccc1)C(=O)c1c([O-])[n+]2ccccc2n1Cc1cnc(Cl)s1` [Example I-053] the efficacy ([1]; application rate 4 ppm) was 100%.

For `Oc1cn(Cc2cnc(Cl)s2)c2c(I)ccc[n+]12` [VII-1-002, 1-[(2-chlorothiazol-5-yl)methyl]-8-iodoimidazo[1,2-a]pyridin-4-ium-3-ol 2,2,2-trifluoroacetate], the chromatographic logP [3, 5] was 1.22.

Molecule `O=C(c1c([O-])[n+]2cccc(I)c2n1Cc1cnc(Cl)s1)C(F)(F)F` [Example I-112, 1-[(2-chlorothiazol-5-yl)methyl]-8-iodo-2-(2,2,2-trifluoroacetyl)imidazo[1,2-a]pyridin-4-ium-3-olate] has a chromatographic logP [3] of 2.37.

In the case of `CNC(=O)c1c([O-])[n+]2ccccc2n1Cc1cnc(Cl)s1` [Example I-017], the efficacy [4] is reported as 100% and the efficacy ([1]; application rate 4 ppm) is reported as 100%.

Molecule `O=C(OCC(F)(F)F)C(=O)c1c([O-])[n+]2ccccc2n1Cc1cnc(Cl)s1` [Example I-036] has an efficacy ([1]; application rate 4 ppm) of 100% and an efficacy [2] of 90%.

For `O=C(OCc1cccc(Cl)n1)C(=O)c1c([O-])[n+]2ccccc2n1Cc1cnc(Cl)s1` [Example I-042], the efficacy [2] was 100%.

In the case of `Cc1ccc[n+]2c([O-])c(C(=O)C(=O)OCC3CC3)n(Cc3cnc(Cl)s3)c12` [Example I-047], the pest or weed control at 160 µg/disc, 160 µg/well [4] is reported as 100%, the pest or weed control at 4 ppm ([1]; application rate 4 ppm) is reported as 100% and the pest or weed control at 500 g/ha [2] is reported as 90%.

Molecule `O=C(NCc1ccccc1)c1c([O-])[n+]2ccccc2n1Cc1cnc(Cl)s1` [Example I-022] has an efficacy [4] of 100%.

`O=C(c1c([O-])[n+]2cccc(C3CC3)c2n1Cc1cnc(Cl)s1)C(F)(F)F` [Example I-078, 1-[(2-chlorothiazol-5-yl)methyl]-8-cyclopropyl-2-(2,2,2-trifluoroacetyl)imidazo[1,2-a]pyridin-4-ium-3-olate] showed a chromatographic logP [3, 5] of 2.48.

Molecule `O=C(c1ccc(Cl)cc1)c1c([O-])[n+]2ccccc2n1Cc1cnc(Cl)s1` [Example I-030] has an efficacy [4] of 100% and an efficacy ([1]; application rate 4 ppm) of 100%.

`O=C(OCC(F)F)C(=O)c1c([O-])[n+]2ccccc2n1Cc1cnc(Cl)s1` [Example I-051] gave an efficacy ([1]; application rate 4 ppm) of 100% and an efficacy [2] of 90%.

In the case of `O=C(c1cccc(C(F)(F)F)c1)c1c([O-])[n+]2ccccc2n1Cc1cncnc1` [Example I-049], the efficacy ([1]; application rate 4 ppm) is reported as 100% and the efficacy [2] is reported as 90%.

For `O=C(c1c([O-])[n+]2ccccc2n1Cc1ccc(Cl)nc1)C(F)(F)F` [Example I-002], the efficacy [4] was 100%, the efficacy ([1]; application rate 4 ppm) was 100% and the efficacy ([1]; application rate 20 ppm) was 100%. The efficacy [2] was 100%.

In the case of `COCC(=O)c1c([O-])[n+]2ccccc2n1Cc1ccc(Cl)nc1` [Example I-009], the efficacy ([1]; application rate 4 ppm) is reported as 100% and the efficacy ([1]; application rate 20 ppm) is reported as 100%.

`O=C(CCl)c1c([O-])[n+]2ccccc2n1Cc1cnc(Cl)s1` [Example I-005, 2-(2-Chloroacetyl)-1-[(2-chlorothiazol-5-yl)methyl]imidazo[1,2-a]pyridin-4-ium-3-olate] showed a pest or weed control at 160 µg/disc, 160 µg/well [4] of 80%, a pest or weed control at 4 ppm ([1]; application rate 4 ppm) of 100% and a pest or weed control at 20 ppm ([1]; application rate 20 ppm) of 100%. For the same molecule, the chromatographic logP [3] was 1.58.
